{
  "source": "patent US8575068B2",
  "about": "“Pyrazinothiazines having herbicidal action” (BASF SE, priority 2010, dated 2013)",
  "tested_on": "Galium aparine",
  "assay": "Greenhouse post-emergence herbicidal activity against GALAP",
  "type": "in vivo",
  "conditions": "application rate 0.5 kg/ha, scale 0 to 100",
  "description": "The seeds of the test plants were sown separately for each species. For the post-emergence treatment, the test plants were first grown to a height of 3 to 15 cm, depending on the plant habit, and only then treated with the active ingredients which had been suspended or emulsified in water. For this purpose, the test plants were either sown directly and grown in the same containers, or they were first grown separately as seedlings and transplanted into the test containers a few days prior to treatment. Depending on the species, the plants were kept at 10-25° C. or 20-35° C. The test period extended over 2 to 4 weeks. During this time, the plants were tended, and their response to the individual treatments was evaluated. Evaluation was carried out using a scale from 0 to 100. 100 means no emergence of the plants, or complete destruction of at least the aerial moieties, and 0 means no damage, or normal course of growth. A good herbicidal activity is given at values of at least 70 and a very good herbicidal activity is given at values of at least 85. The plants used in the greenhouse experiments belonged to the following species: [table]",
  "data": [
    {"smiles": "COCCOc1cccc(C2=C(O)c3nccnc3N(CC(F)F)S2(=O)=O)c1C(F)(F)F", "note": "[I-6, 1-(2,2-difluoroethyl)-3-[3-(2-methoxyethoxy)-2-(trifluoromethyl)phenyl]-2,2-dioxo-pyrazino[2,3-c]thiazin-4-ol]", "values": [
      {"measurement": "herbicidal activity against GALAP", "value": "very good (a very good herbicidal activity is given at values of at least 85)"}
    ]}
  ]
}
